Where two headings read alike, the source gives them in different places.
How the values were obtained:
Haematobia irritans = assay: whole plant or invertebrate; conditions: 5 μg/cm^2; for mortality at 5 µg/cm2: Haematobia irritans, read-out: Contact SP Horn Fly PCT Mortality (%)
Protocol: A solution of the test compound was used to treat a filter paper contained within a Petri dish and the filter paper was allowed to evaporate to dryness. A small piece of absorbent cotton moistened with 10% sucrose and ten adult flies (Haematobia irritans or Stomoxys calcitrans) were added to each dish. Dishes were capped and held at room temperature. Assessments were performed at 4 and 24 hours after infestation in comparison with untreated controls.

[1] = test system: Rhipicephalus sanguineus (Brown Dog Tick); assay: whole plant or invertebrate; conditions: for mortality at 200 ppm: Rhipicephalus sanguineus, read-out: Contact SP Rhicicep PCT Mortality (%); for Contact SP Rhicicep PCT Mortality (%): 200 ppm
Text: A solution of the test compound was used to coat the inner wall of glass vials and to treat two filter papers. Once dried, one filter paper was placed in the cap of the vial and the other in the bottom of the vial. Each treated vial was infested with 10 adult Rhipicephalus sanguineus (Brown Dog Tick). […]

CC(C)CNC(=O)c1ccc(C(C)COc2cccc(OC(F)(F)F)c2)cn1 (racemic) [Compound 251]
Contact SP Horn Fly PCT Mortality (%) (Haematobia irritans; timepoint 4 hrs): 80%
Contact SP Horn Fly PCT Mortality (%) (Haematobia irritans; timepoint 24 hrs): 100%

CC(C)CNC(=O)c1ccc(COc2ccc(OC(F)(F)F)cc2)cn1 [Compound 10]
mortality at 200 ppm ([1]; timepoint 4 hrs): 0%
mortality at 200 ppm ([1]; timepoint 24 hrs): 100%
mortality at 5 µg/cm2 (Haematobia irritans; timepoint 4 hrs): 90%
mortality at 5 µg/cm2 (Haematobia irritans; timepoint 24 hrs): 90%

COCCCNC(=O)c1ccc(COc2ccc(OC(F)(F)F)cc2)cn1 [Compound 18]
Contact SP Horn Fly PCT Mortality (%) (Haematobia irritans; timepoint 4 hrs): 0%
Contact SP Horn Fly PCT Mortality (%) (Haematobia irritans; timepoint 24 hrs): 40%

CCNC(=O)c1ccc(COc2ccc(OC(F)(F)F)cc2)cn1 [Compound 23]
Contact SP Rhicicep PCT Mortality (%) ([1]; timepoint 4 hrs): 80%
Contact SP Rhicicep PCT Mortality (%) ([1]; timepoint 24 hrs): 90%

CCCNC(=O)c1ccc(COc2ccc(OC(F)(F)F)cc2)cn1 [Compound 34]
Contact SP Horn Fly PCT Mortality (%) (Haematobia irritans; timepoint 4 hrs): 60%
Contact SP Horn Fly PCT Mortality (%) (Haematobia irritans; timepoint 24 hrs): 80%

C=C(C)CNC(=O)c1ccc(COc2ccc(OC(F)(F)F)cc2)cn1 [Compound 38]
Contact SP Horn Fly PCT Mortality (%) (Haematobia irritans; timepoint 4 hrs): 50%
Contact SP Horn Fly PCT Mortality (%) (Haematobia irritans; timepoint 24 hrs): 80%

CCCCNC(=O)c1ccc(COc2ccc(OC(F)(F)F)cc2)cn1 [Compound 40]
Contact SP Horn Fly PCT Mortality (%) (Haematobia irritans; timepoint 4 hrs): 0%
Contact SP Horn Fly PCT Mortality (%) (Haematobia irritans; timepoint 24 hrs): 40%

CCC(C)CNC(=O)c1ccc(COc2ccc(OC(F)(F)F)cc2)cn1 (stereo not drawn) [Compound 41]
mortality at 5 µg/cm2 (Haematobia irritans; timepoint 4 hrs): 60%
mortality at 5 µg/cm2 (Haematobia irritans; timepoint 24 hrs): 60%

CSCCNC(=O)c1ccc(COc2cccc(OC(F)(F)F)c2)cn1 [Compound 49]
mortality at 5 µg/cm2 (Haematobia irritans; timepoint 4 hrs): 60%
mortality at 5 µg/cm2 (Haematobia irritans; timepoint 24 hrs): 0%

CC(C)NC(=O)c1ccc(COc2cccc(OC(F)(F)F)c2)cn1 [Compound 50]
Contact SP Horn Fly PCT Mortality (%) (Haematobia irritans; timepoint 4 hrs): 70%
Contact SP Horn Fly PCT Mortality (%) (Haematobia irritans; timepoint 24 hrs): 80%

C=C(C)CNC(=O)c1ccc(COc2cccc(OC(F)(F)F)c2)cn1 [Compound 53]
Contact SP Horn Fly PCT Mortality (%) (Haematobia irritans; timepoint 4 hrs): 20%
Contact SP Horn Fly PCT Mortality (%) (Haematobia irritans; timepoint 24 hrs): 20%

CCC(C)CNC(=O)c1ccc(COc2cccc(OC(F)(F)F)c2)cn1 (stereo not drawn) [Compound 57]
Contact SP Horn Fly PCT Mortality (%) (Haematobia irritans; timepoint 4 hrs): 70%
Contact SP Horn Fly PCT Mortality (%) (Haematobia irritans; timepoint 24 hrs): 80%

Cc1cccc(OCc2ccc(C(=O)NCC3CC3)nc2)c1 [Compound 61]
Contact SP Horn Fly PCT Mortality (%) (Haematobia irritans; timepoint 4 hrs): 90%
Contact SP Horn Fly PCT Mortality (%) (Haematobia irritans; timepoint 24 hrs): 90%

CCc1cccc(OCc2ccc(C(=O)NCC3CCOCC3)nc2)c1 [Compound 68]
mortality at 200 ppm ([1]; timepoint 4 hrs): 50%
mortality at 200 ppm ([1]; timepoint 24 hrs): 90%

CCc1cccc(OCc2ccc(C(=O)NCCSC)nc2)c1 [Compound 70]
Contact SP Rhicicep PCT Mortality (%) ([1]; timepoint 4 hrs): 80%
Contact SP Rhicicep PCT Mortality (%) ([1]; timepoint 24 hrs): 100%

CCc1cccc(OCc2ccc(C(=O)NCC3CC3)nc2)c1 [Compound 73]
Contact SP Horn Fly PCT Mortality (%) (Haematobia irritans; timepoint 4 hrs): 100%
Contact SP Horn Fly PCT Mortality (%) (Haematobia irritans; timepoint 24 hrs): 100%

O=C(NCC1CC1)c1ccc(COc2ccc(C(F)(F)F)cc2)cn1 [Compound 95]
Contact SP Horn Fly PCT Mortality (%) (Haematobia irritans; timepoint 4 hrs): 50%
Contact SP Horn Fly PCT Mortality (%) (Haematobia irritans; timepoint 24 hrs): 70%

O=C(NCc1ccncc1)c1ccc(COc2cc(F)cc(Br)c2)cn1 [Compound 114]
Contact SP Rhicicep PCT Mortality (%) ([1]; timepoint 4 hrs): 40%
Contact SP Rhicicep PCT Mortality (%) ([1]; timepoint 24 hrs): 60%

CSCCNC(=O)c1ccc(COc2cc(F)cc(Br)c2)cn1 [Compound 115]
Contact SP Horn Fly PCT Mortality (%) (Haematobia irritans; timepoint 4 hrs): 0%
Contact SP Horn Fly PCT Mortality (%) (Haematobia irritans; timepoint 24 hrs): 60%

CCCNC(=O)c1ccc(COc2cc(F)cc(Br)c2)cn1 [Compound 120]
Contact SP Rhicicep PCT Mortality (%) ([1]; timepoint 4 hrs): 60%
Contact SP Rhicicep PCT Mortality (%) ([1]; timepoint 24 hrs): 70%

O=C(NCCc1ccccn1)c1ccc(COc2cc(F)cc(Br)c2)cn1 [Compound 121]
Contact SP Horn Fly PCT Mortality (%) (Haematobia irritans; timepoint 4 hrs): 80%
Contact SP Horn Fly PCT Mortality (%) (Haematobia irritans; timepoint 24 hrs): 80%

CC(C)CNC(=O)c1ccc(COc2cc(F)cc(Br)c2)cn1 [Compound 125]
mortality at 5 µg/cm2 (Haematobia irritans; timepoint 4 hrs): 100%
mortality at 5 µg/cm2 (Haematobia irritans; timepoint 24 hrs): 100%

CC(C)CCNC(=O)c1ccc(COc2cc(F)cc(Br)c2)cn1 [Compound 129]
mortality at 5 µg/cm2 (Haematobia irritans; timepoint 4 hrs): 40%
mortality at 5 µg/cm2 (Haematobia irritans; timepoint 24 hrs): 40%

CC(C)CNC(=O)c1ccc(COCc2cccc(OC(F)(F)F)c2)cn1 [Compound 132]
Contact SP Horn Fly PCT Mortality (%) (Haematobia irritans; timepoint 4 hrs): 100%
Contact SP Horn Fly PCT Mortality (%) (Haematobia irritans; timepoint 24 hrs): 100%

CC(C)CNC(=O)c1ccc(COCc2ccc(OC(F)(F)F)cc2)cn1 [Compound 133]
mortality at 5 µg/cm2 (Haematobia irritans; timepoint 4 hrs): 80%
mortality at 5 µg/cm2 (Haematobia irritans; timepoint 24 hrs): 80%

C=C(C)CNC(=O)c1ccc(COc2cccc(OC)c2)cn1 [Compound 150]
Contact SP Rhicicep PCT Mortality (%) ([1]; timepoint 4 hrs): 70%
Contact SP Rhicicep PCT Mortality (%) ([1]; timepoint 24 hrs): 70%

COc1cccc(OCc2ccc(C(=O)NCC(C)C)nc2)c1 [Compound 151]
Contact SP Rhicicep PCT Mortality (%) ([1]; timepoint 4 hrs): 0%
Contact SP Rhicicep PCT Mortality (%) ([1]; timepoint 24 hrs): 80%

CC(C)CNC(=O)c1ccc(COc2ccc(F)c(F)c2)cn1 [Compound 155]
Contact SP Rhicicep PCT Mortality (%) ([1]; timepoint 4 hrs): 60%
Contact SP Rhicicep PCT Mortality (%) ([1]; timepoint 24 hrs): 100%

COCCCNC(=O)c1ccc(COc2cccc(-c3cccc(F)c3)c2)cn1 [Compound 166]
Contact SP Rhicicep PCT Mortality (%) ([1]; timepoint 4 hrs): 40%
Contact SP Rhicicep PCT Mortality (%) ([1]; timepoint 24 hrs): 80%
